The numbers were not newly measured in patent US11638760B2, “Pyrrolobenzodiazepine antibody conjugates” (priority 2017, dated 2023), which cites them from elsewhere.

For the data set the following is noted: Phase I clinical evaluation.

`C=C1C[C@H]2C=Nc3cc(OCCCOc4cc5c(cc4OC)C(=O)N4CC(=C)C[C@H]4C=N5)c(OC)cc3C(=O)N2C1` [SJG-136]: the maximum tolerated dose is given as 45 μg/m.
